# Laboratory results: ChEMBL document CHEMBL1154026, “FXR agonist activity of conformationally constrained analogs of GW 4064” (Bioorg Med Chem Lett, 2009)
# What was measured:
# Bile acid receptor [1] = biological target: T1, Bile acid receptor (Homo sapiens, UniProt Q96RI1); assay: Induction of SRC1 coactivator peptide binding to ligand binding domain of human FXR by FRET assay
# T1 sequence (Q96RI1 whole entry): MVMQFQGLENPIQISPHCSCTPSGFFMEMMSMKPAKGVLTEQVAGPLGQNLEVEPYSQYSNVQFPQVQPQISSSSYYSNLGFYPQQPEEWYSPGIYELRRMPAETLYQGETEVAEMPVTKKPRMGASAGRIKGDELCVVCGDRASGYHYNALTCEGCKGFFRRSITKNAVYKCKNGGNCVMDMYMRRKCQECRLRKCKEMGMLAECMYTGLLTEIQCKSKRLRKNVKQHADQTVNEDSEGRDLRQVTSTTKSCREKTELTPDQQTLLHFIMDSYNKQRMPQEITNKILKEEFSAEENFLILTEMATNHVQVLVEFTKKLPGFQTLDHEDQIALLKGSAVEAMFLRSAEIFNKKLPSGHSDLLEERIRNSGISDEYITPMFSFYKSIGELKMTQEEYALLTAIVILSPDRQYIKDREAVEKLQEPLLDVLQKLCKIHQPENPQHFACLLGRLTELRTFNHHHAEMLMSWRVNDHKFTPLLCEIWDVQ
# Bile acid receptor [2] = biological target: T1, Bile acid receptor; assay: Increase in human FXR-mediated transient transcription of luciferase reporter gene transfected in african green monkey CV1 cells; format: cell-based, CV-1
# [3] = biological target: T2, Bile acid receptor (Homo sapiens) (UniProt Q96RI1); assay: Induction of SRC1 coactivator peptide binding to ligand binding domain of human FXR by FRET assay relative to GW-4064; set-up: concentration or dose not given beside the values
# T2 sequence (whole entry): T1 sequence (Q96RI1 whole entry)
# [4] = biological target: T2, Bile acid receptor (Homo sapiens); assay: Increase in human FXR-mediated transient transcription of luciferase reporter gene transfected in african green monkey CV1 cells relative to GW-4064; format: cell-based; set-up: concentration or dose not given beside the values; conditions: CV-1
# [5] = Total clearance in rat at 1 mg/kg, iv; format: ADME, organism-based; set-up: dose 1 mg/kg, route intravenous; conditions: in vivo
# [6] = Oral bioavailability in rat at 5 mg/kg; format: ADME, organism-based; conditions: in vivo
# [7] = Volume of distribution at steady state in rat at 1 mg/kg, iv; format: ADME, organism-based; set-up: dose 1 mg/kg, route intravenous; conditions: in vivo, read-out: Vdss
# [8] = Terminal half life in rat at 1 mg/kg, iv; format: ADME, organism-based; set-up: dose 1 mg/kg, route intravenous; conditions: in vivo, read-out: beta t1/2
EC50 (Bile acid receptor [1]),EC50 (Bile acid receptor [2]),Activity [3],Activity [4],clearance [5],bioavailability [6],Vd [7],half-life [8],Structure (SMILES)
710 nM,8300 nM,52%,112%,–,–,–,–,CC(C)c1onc(-c2c(Cl)cccc2Cl)c1COc1ccc2c(c1)CCN(c1cccc(C(=O)O)c1)C2=O
590 nM,930 nM,81%,32%,–,–,–,–,CC(C)c1onc(-c2c(Cl)cccc2Cl)c1COc1ccc2c(Cc3cccc(C(=O)O)c3)c[nH]c2c1
160 nM,1300 nM,87%,63%,–,–,–,–,CC(C)c1onc(-c2c(Cl)cccc2Cl)c1COc1ccc2c(ccn2S(=O)(=O)c2cccc(C(=O)O)c2)c1
160 nM,330 nM,80%,79%,–,–,–,–,CC(C)c1onc(-c2c(Cl)cccc2Cl)c1COc1ccc2c(ccn2Cc2ccc(C(=O)O)cc2)c1
1500 nM,> 10000 nM,25%,–,–,–,–,–,CC(C)c1onc(-c2c(Cl)cccc2Cl)c1COc1ccc2[nH]cc(Cc3cccc(C(=O)O)c3)c2c1
1100 nM,> 10000 nM,75%,–,–,–,–,–,CC(C)c1onc(-c2c(Cl)cccc2Cl)c1COc1ccc2c(c1)CC(=O)N(c1cccc(C(=O)O)c1)C2
480 nM,630 nM,81%,103%,–,–,–,–,CC(C)c1onc(-c2c(Cl)cccc2Cl)c1COc1ccc2[nH]c(-c3cccc(C(=O)O)c3)cc2c1
200 nM,220 nM,95%,79%,–,–,–,–,CC(C)c1onc(-c2c(Cl)cccc2Cl)c1COc1ccc2cc(-c3ccc(C(=O)O)cc3)sc2c1
960 nM,380 nM,91%,123%,–,–,–,–,CC(C)c1onc(-c2c(Cl)cccc2Cl)c1CNc1nc2ccc(-c3cccc(C(=O)O)c3)cc2s1
1400 nM,5000 nM,38%,40%,4.4 mL/min/kg,26%,0.085 L/kg,31 min,CC(C)c1onc(-c2c(Cl)cccc2Cl)c1COc1ccc2c(c1)ncn2Cc1cccc(C(=O)O)c1
1700 nM,> 10000 nM,19%,–,–,–,–,–,CC(C)c1onc(-c2c(Cl)cccc2Cl)c1CCc1nc2cccc(Nc3cccc(C(=O)O)c3)c2o1
140 nM,63 nM,92%,93%,–,–,–,–,CC(C)c1onc(-c2c(Cl)cccc2Cl)c1COc1ccc2cc(-c3cccc(C(=O)O)c3)sc2c1
280 nM,160 nM,80%,89%,–,–,–,–,CC(C)c1onc(-c2c(Cl)cccc2Cl)c1COc1ccc2sc(-c3ccc(C(=O)O)cc3)cc2c1
150 nM,860 nM,68%,63%,–,–,–,–,CC(C)c1onc(-c2c(Cl)cccc2Cl)c1COc1ccc2c(ccn2C(=O)c2cccc(C(=O)O)c2)c1
1200 nM,710 nM,41%,75%,–,–,–,–,CC(C)c1onc(-c2c(Cl)cccc2Cl)c1CCc1nc2cc(-c3cccc(C(=O)O)c3)ccc2o1
320 nM,81 nM,95%,57%,–,–,–,–,CC(C)c1onc(-c2c(Cl)cccc2Cl)c1COc1ccc2c(Nc3cccc(C(=O)O)c3)cccc2c1
410 nM,410 nM,72%,86%,–,–,–,–,CC(C)c1onc(-c2c(Cl)cccc2Cl)c1COc1ccc2nc(-c3cccc(C(=O)O)c3)sc2c1
110 nM,130 nM,88%,103%,–,–,–,–,CC(C)c1onc(-c2c(Cl)cccc2Cl)c1COc1ccc2cc(-c3cccc(C(=O)O)c3)ccc2c1
670 nM,1100 nM,59%,61%,–,–,–,–,CC(C)c1onc(-c2c(Cl)cccc2Cl)c1COc1ccc2c(c1)CN(c1cccc(C(=O)O)c1)C2=O
320 nM,210 nM,80%,84%,6.7 mL/min/kg,12%,0.07 L/kg,45 min,CC(C)c1onc(-c2c(Cl)cccc2Cl)c1COc1ccc2c(ccn2Cc2cccc(C(=O)O)c2)c1
55 nM,32 nM,90%,87%,66 mL/min/kg,8.5%,0.72 L/kg,15 min,CC(C)c1onc(-c2c(Cl)cccc2Cl)c1COc1ccc2sc(-c3cccc(C(=O)O)c3)cc2c1
440 nM,980 nM,68%,170%,–,–,–,–,CC(C)c1onc(-c2c(Cl)cccc2Cl)c1COc1ccc2cc(-c3ccc(C(=O)O)cc3)ccc2c1
